Each structure is given as a SMILES string. “Also recorded” adds a separate entry of the source.

One test deals with T1, type II sites (GR) (Rattus norvegicus, UniProt P06536).
T1 construct: type II receptors in kidney cytosols; from tissue; host or cells: kidney cytosol, adrenalectomized male Sprague-Dawley rats
T1 sequence (P06536 1-795): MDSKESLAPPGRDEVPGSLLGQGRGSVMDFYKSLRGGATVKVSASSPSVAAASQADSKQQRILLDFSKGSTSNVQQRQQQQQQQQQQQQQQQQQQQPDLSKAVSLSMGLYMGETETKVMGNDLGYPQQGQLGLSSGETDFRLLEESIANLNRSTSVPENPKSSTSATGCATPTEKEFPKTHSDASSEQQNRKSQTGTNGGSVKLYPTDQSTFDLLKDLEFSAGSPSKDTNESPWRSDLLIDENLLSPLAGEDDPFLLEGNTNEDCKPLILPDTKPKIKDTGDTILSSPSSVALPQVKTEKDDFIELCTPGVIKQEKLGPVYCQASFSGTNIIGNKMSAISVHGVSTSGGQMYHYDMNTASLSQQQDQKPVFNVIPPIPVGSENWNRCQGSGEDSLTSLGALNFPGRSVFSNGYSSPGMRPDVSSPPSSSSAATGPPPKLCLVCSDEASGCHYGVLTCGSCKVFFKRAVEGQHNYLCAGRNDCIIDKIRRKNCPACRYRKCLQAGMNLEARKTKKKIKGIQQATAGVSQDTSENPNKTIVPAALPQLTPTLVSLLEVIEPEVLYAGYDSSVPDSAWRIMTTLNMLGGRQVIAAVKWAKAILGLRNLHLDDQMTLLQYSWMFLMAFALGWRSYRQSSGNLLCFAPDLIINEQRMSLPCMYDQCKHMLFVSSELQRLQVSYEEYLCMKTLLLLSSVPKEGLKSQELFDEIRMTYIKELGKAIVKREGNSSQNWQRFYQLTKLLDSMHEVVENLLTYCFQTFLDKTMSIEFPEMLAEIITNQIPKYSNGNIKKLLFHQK
As to the kind of experiment: tracer binding (Scatchard) to kidney type II sites (GR). The conditions noted are these: kidney cytosol, 2.5 μM 21OH-6OP. As to the method:
Binding Assay: Adrenalectomized male Sprague-Dawley rats were bled to death by heart puncture. Cold 0.9% NaCI was injected profusely through the aorta until organs were completely blanched. Thymuses were used as a source of GR and kidneys as a source of MR. Homogenization and incubation conditions were performed as previously described, (14) and (15), respectively. Briefly, homogenates performed in cold TEGM buffer at pH 7.4 (0.1 M Tris-HCl, 10 mM EDTA, 10 mM α-mercaptoethanol, 20 mM Na2 MoO4, 25% glycerol, 0.1 mM PMSF, 2.0 TIU/ml aprotinin and 1 mg% Leupeptin) were centrifuged at 37,000 rev. for 30 min at 0° C. Supernatants from this centrifugation are referred to as "cytosol". […] (^3 H)-P4 binding to uterus PR was assayed on immature female rats according to Jordan et al (16).
To study the binding of ALDO to kidney- MR without the competitive influence of the relatively more abundant GR, GR was removed with the specific ligand RU28362 (7).
The calculated Kd for type I sites in different conditions ranges between 0.4 and 1 nM (Table 1) which is at least eighty times higher than the affinity for type II sites.

The subject of another test is liver glycogen. As to the kind of experiment: liver glycogen deposition in vivo, adrenalectomized rats. The conditions noted are these: FIG. 3-A; 100 μg steroid/100 g body weight. Details: species or system rat. As to the method:
FIG. 3: Biological Properties of 21OH-6OP: A) Glycogen storage in vivo: 100 μg steroid/100 g body weight of male rats were injected as indicated in Example 1. Liver glycogen was purified and quantified with Krisman's reagent (17). Controls were injected with vehicle. Results are expressed as means±SEM (n=6). (*): different from controls P<0.02. B) TAT induction in vitro: rat hepatocytes were incubated for 5 h in HAM-F12 medium in the presence of 100 nM steroid and TAT activity was measured. Results are expressed as percentage of enzyme activity (means±SEM, n=4) over controls incubated in the presence of vehicle. (*) different from controls P<0.01. C) Sodium-retaining activity: adrenalectomized rats were treated with the indicated dose of steroids. Results are expressed as the ratio of sodium-excretion rates of steroid-injected animals to the excretion rates of rats injected with vehicle.
Bioassay : Liver glycogen deposition was measured on adrenalectoniized male Sprague-Dawley rats (180-220 g) as follows: steroids were dissolved in ethanol/propylene glycol/0.9% NaCl solution (3:3:34) and 100 μg steroid/l00 g body weight were injected i.m. the previous night. On the morning of the experiment this dose was reinjected intraperitoneally. Three hours later the rats were killed by cervical dislocation and livers were immediately removed. Glycogen purification and quantification were carried out according to Krisman's method (17). Na^+ -retaining properties were measured as described (5). Tyrosine aminotransferase (TAT) was induced in rat hepatocytes isolated by the procedure of Fry et al (18). TAT activity was determined according to Granner and Tomkins (19).

Consider `C[C@]12CC[C@H]3[C@@H](C[C@H]4OC[C@@]35CCC(=O)C=C45)[C@@H]1CC[C@@H]2C(=O)CO` [21OH-6OP, 21-hydroxy-6,19-oxidoprogesterone], for which the “masking of (^3 H)-ALDO cross-reaction with GR / block of type II receptors” value on type II sites (GR) is reported as “able to mask the cross reaction of (^3 H)-ALDO with GR; also recorded: able to block type II receptors in kidney cytosols”. Besides, the “GC response: liver glycogen” value with liver glycogen is “neither 6OP nor 21OH-6OP evoke these responses”.

These data come from patent US6303591A, “21-hydroxy-6,19-oxidoprogesterone (21OH-6OP) and its use as medicament for treating excess of glucocorticoids” (Applied Research Systems ARS Holding NV, priority 1997, dated 2001).
